In patent US5763430A, “Method of treating a viral infection by administering a steroid compound” (priority 1995, dated 1998):
Converted amounts (≈) assume the structure as drawn.

How the values were obtained:
S. aureus = assay: antibiotic activity (MIC); assay type: cell-based; details: Staphylococcus aureus; S. aureus; read-out: MIC
From the text: (§1) Thus, it is possible to achieve an antimicrobial steroid with or without squalamine-like pharmacological activity.

E. coli = assay: antibiotic activity (MIC); assay type: cell-based; details: Escherichia coli; E. coli; read-out: MIC
From the text: as §1

P. aerug = assay: antibiotic activity (MIC); assay type: cell-based; details: P. aerug; read-out: MIC
From the text: as §1

C. albicans = assay: antibiotic activity (MIC); assay type: cell-based; details: Candida albicans; C. albicans; read-out: MIC
From the text: as §1

human melanoma = assay: effect on growth of human melanoma over time / mode of cell death; assay type: cell-based
Lewis lung carcinoma [1] = assay: cytotoxic activity against cancer cells; assay type: cell-based
Human melanoma WM 1167 = assay: cytotoxic activity against cancer cells; assay type: cell-based
[2] = system: chick embryo vitelline capillaries; assay: chick embryo vitelline capillary regression assay; assay type: in vivo
Method: Using the chick embryo vitelline capillaries assay, compounds were tested for their ability to induce capillary regression. Each compound was applied in 0.1 ml of 15% Ficol 400 and PBS onto the embryo, and vascular regression was assessed after 60 minutes.
The 3-day chick embryo consists of an embryonic disc from which numerous vessels emerge and return, forming a "FIG. 8"-shaped structure--the embryo in the center with vascular loops extending outward over both poles. […] Following a lag period of around 15 minutes, the constriction of continuity between capillary and secondary vessels, generally on the "venous" side, was observed. Continued pulsatile blood flow progressed, resulting in a "swelling" of the blind tube, followed by a pinching off of the remaining connection and formation of an enclosed vascular sac resembling a "blood island." This process progressed until only the largest vessels remained intact.

[3] = system: human microvascular cells; assay: inhibition of endothelial cell cord formation in vitro; assay type: cell-based; for effect on endothelial cord formation: key: +: Inhibition of angiogenesis; -: No inhibition of angiogenesis; Toxic; *: cell rounding @ 10 µg/ml
From the text: Endothelial cells have the capacity in vitro to form tubular aggregates resembling capillaries in various early stages of formation. This conversion occurs under relatively specific conditions, in which essential growth factors along with an effective substratum are provided. It has been shown that both the interaction of growth factors with the endothelial cell and its attachment to a substratum activate the NHE. The activation of this exchanger is believed to be required for subsequent morphologic transformation of the endothelial cell into a multicellular tubular structure.
To assess the effect of compounds on the cord-like structures formed by human microvascular cells when plated in the presence of VEGF (Vascular Endothelial Growth Factor) and basic fibroblast growth factor on a collagen matrix, a standard cord formation assay was used.

[4] = system: stage 59-60 Xenopus tadpole; assay: Xenopus tadpole assay
[5] = effect on arterial resistance in the rat; assay type: in vivo; details: 5 mg/kg i.v.
Method: A 200-g rat was catheterized in the right carotid artery, and the compound was introduced over a ten-second period to a total dosage of 5 mg/kg. Within 30 seconds, the mean arterial pressure had fallen from about 100 mm Hg to about 70 mm Hg, with a marked reduction in pulse pressure from about 40 mm to about 10 mm. […] If cardiac output was basically unaffected, reduction in blood pressure would have resulted principally from a reduction in system resistance.
At that time, 40 μg of noradrenaline was introduced.

[6] = system: Human ovarian carcinoma SKOV3; assay: growth inhibition in vitro; assay type: cell-based; details: SKOV3, 10 μg/ml
Method: (§2) As set forth in Table 7 below, all malignant tumors evaluated in tissue culture, endothelial cells and vascular smooth muscle cells were sensitive to inhibition. Thus, compound 1436 has application in the control of growth factor dependent proliferation of many types of tissue.
Using the assay described above, the anticancer effects of compound 1437 against several cancer lines was assessed.

Lewis lung carcinoma [7] = assay: growth inhibition in vitro; assay type: cell-based; details: 10 μg/ml
From the text: as §2

Murine B16 melanoma = assay: growth inhibition in vitro; assay type: cell-based; details: Murine B16 melanoma, 10 μg/ml
From the text: as §2

[8] = system: bovine pulmonary endothelial cells; assay: growth inhibition in vitro; assay type: cell-based; details: 10 μg/ml
From the text: as §2

Human melanoma WM 1617 = assay: growth inhibition in vitro; assay type: cell-based; details: WM 1617, 10 μg/ml
From the text: as §2

[9] = system: Human colon carcinoma HT29; assay: growth inhibition in vitro; assay type: cell-based; details: HT29, 10 μg/ml
From the text: as §2

[10] = system: human umbilical venous endothelial cells; assay: growth inhibition in vitro; assay type: cell-based; details: 10 μg/ml
From the text: as §2

Murine L1210 leukemia = assay: growth inhibition in vitro; assay type: cell-based; details: 10 μg/ml
From the text: as §2

[11] = system: Human microvascular endothelial cells; assay: growth inhibition in vitro; assay type: cell-based; details: 10 μg/ml
From the text: as §2

[12] = system: Human coronary artery smooth muscle cells; assay: growth inhibition in vitro; assay type: cell-based; details: 10 μg/ml
From the text: as §2

[13] = system: Human colon carcinoma SW948; assay: growth inhibition in vitro; assay type: cell-based; details: SW948, 10 μg/ml
From the text: as §2

[14] = effect on growth and weight gain of growing mice; assay type: in vivo, mouse (C57B)
Method: Animals were dosed QTD (i.p.) starting on Day 1. […] Animals receiving 5 mg/kg QTD experienced about a 50% reduction in growth, compared to untreated controls, while animals receiving 1 mg/kg QTD were affected by about 10%. […] They appeared very much like hypophysectamized animals might appear.

[15] = system: heart of a juvenile Xenopus laevis frog; assay: persistence of beating of isolated frog heart; details: 10 μg/ml
Method: To determine if compound 1436 has such utility, the following experiment was performed. The heart of a juvenile Xenopus laevis frog was dissected from the living animal. The heart was placed into a Petri dish containing Krebs-Ringer buffer with adrenaline 50 μg/ml, and examined with the naked eye. At room temperature, the heart continued beating in a coordinated fashion (atrial beat followed by ventricular beat) for about one hour. In the presence of 10 μg/ml of compound 1436, spontaneous beating persisted up to 24 hours.

[16] = effect on fasting blood glucose in mice; assay type: in vivo, mouse (male CD-1); details: i.v.
Method: To study the effect of steroid administrator or the NHE responsible for secretion of insulin, several of the aminosterols from shark liver were administered to fasting mice. Male CD-1 mice were assigned to one of four treatment groups. Whole blood glucose was tested using glucometer (Lifescan Glucometer II and One Touch test strips). Statistical analysis was via one-way analysis of variance (ANOVA) followed by subsequent Bonferonni's t-test.

[17] = system: stage 59-60 Xenopus tadpole; details: 10 μg/mL, Table II
HIV clinical isolate = assay: inhibition of HIV replication in PHA-stimulated lymphocytes (HIV P-24 antigen Elisa); assay type: cell-based; details: 20 μM
From the text: (§3) Results are tabulated below.

[18] = viability of lymphocytes in HIV test; assay type: cell-based; details: human
From the text: as §3

[19] = system: L1210 lymphoblastic leukemia cells; assay: mouse model of leukemia; assay type: in vivo; details: highest dose (10 mg/kg every 3 days ip), FIG. 11
From the text: C57B mice were inoculated with L1210 lymphoblastic leukemia cells at an inoculum that causes leukemia in 100% of animals.

B16 melanoma = assay: suppression of growth of B16 melanoma in C57B mice; assay type: in vivo, mouse; details: 10 mg/kg every 3 days alone, FIG. 12
Method: The growth of B16 melanoma in C57B mice is dependent upon neovascularization.
Using the growth of B16 melanoma cells in C57B mice, a recognized model for the evaluation of inhibitors of angiogenesis on the growth of cancers, the effects of subcutaneous, intraperitoneal and oral administration of squalamine were evaluated.
Based on the idea that tumor growth involves both the clonal expansion of a malignant cell along with the development of a supporting vascular supply, a combination of compound 1436 with squalamine was tested to determine whether it would achieve a synergistic effect on solid tumor growth. This concept was evaluated in the B16 melanoma model.
Animals were implanted with B16 melanoma followed by treatment with compound 1436 or 1256 administered in a combined schedule or separately. […] Thus, a combination of these two compounds achieves a therapeutic benefit in tumors dependent on neovascularization that may prevent metastatic spread.

human lymphocytes = assay: inhibition of mitogen (PHA)-stimulated growth of human T-cells; details: Homo sapiens, Lymphocyte, read-out: inhibition of blast transformation
Method: Specific assays were used to identify steroids with a particular biological activity, such as an assay for inhibition of mitogen-stimulated growth of human T-cells.
Human heparinized blood, freshly collected, was introduced into tissue culture flasks containing 10 μg/ml phytohaemagglutinin (PHA) in RPMI medium with 10% FCS. Various purified steroids were introduced subsequently at concentrations of 1, 5, and 10 μg/ml. Cultures were incubated for 72 hours, after which time colcemid was added to 1 μg/ml. Cultures were maintained for an additional 2 hours, and cells collected. Miotic figures were estimated using standard cytochemical techniques, following Giemsa staining.

[20] = system: human coronary artery smooth muscle; assay: proliferation of human coronary artery smooth muscle in vitro; assay type: cell-based; details: FIG. 15
From the text: Aminosterols of the invention may also have utility in inhibiting the growth factor mediated proliferation of smooth muscle within the artery. Following coronary angioplasty, reocclusion commonly occurs, secondary to reparative proliferation of the vascular smooth muscle within the wall of the surgically manipulated blood vessel. This process generally takes place over the course of 7-10 days. To evaluate whether an agent could prevent the growth factor mediated proliferation of smooth muscle within the artery, compound 1436 was evaluated in vitro for its effect on the proliferation of human coronary artery smooth muscle. Results for compound 1436 are shown in FIG. 13, and those for squalamine are shown in FIG. 14, with FIG. 15 being a composite logarithmic plot.

rabbit NHE3 = rabbit NHE3 (Oryctolagus cuniculus, UniProt P26432); details: 10 μg/ml, acid preloaded 40 mM NH4Cl, FIG. 10
rabbit NHE3, sequence (P26432 30-832): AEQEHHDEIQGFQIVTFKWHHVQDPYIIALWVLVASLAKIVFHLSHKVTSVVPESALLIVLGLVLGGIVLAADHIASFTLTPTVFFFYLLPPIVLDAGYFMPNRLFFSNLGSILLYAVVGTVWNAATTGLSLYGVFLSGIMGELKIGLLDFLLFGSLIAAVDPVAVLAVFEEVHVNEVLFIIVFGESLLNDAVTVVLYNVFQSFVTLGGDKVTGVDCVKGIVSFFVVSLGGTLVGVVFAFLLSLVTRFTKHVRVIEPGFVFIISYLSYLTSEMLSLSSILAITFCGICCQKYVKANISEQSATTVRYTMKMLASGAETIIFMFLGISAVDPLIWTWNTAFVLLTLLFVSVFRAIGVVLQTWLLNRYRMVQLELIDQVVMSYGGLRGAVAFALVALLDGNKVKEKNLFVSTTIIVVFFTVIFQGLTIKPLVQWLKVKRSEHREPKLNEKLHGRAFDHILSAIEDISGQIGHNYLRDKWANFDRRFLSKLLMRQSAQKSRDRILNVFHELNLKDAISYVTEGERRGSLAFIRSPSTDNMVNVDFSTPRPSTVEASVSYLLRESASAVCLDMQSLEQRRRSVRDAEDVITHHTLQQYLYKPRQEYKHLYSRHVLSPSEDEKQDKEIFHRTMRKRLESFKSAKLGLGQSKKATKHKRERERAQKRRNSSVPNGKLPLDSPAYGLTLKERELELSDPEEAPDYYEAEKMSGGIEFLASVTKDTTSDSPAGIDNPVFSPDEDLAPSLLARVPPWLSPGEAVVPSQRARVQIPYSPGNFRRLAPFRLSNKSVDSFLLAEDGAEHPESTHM
Method: Internal pH was measured either following acid loading or in the absence of an acid-loading challenge, with the results shown in FIGS. 1A and 1B.
Specifically, PS120 fibroblasts transfected with rabbit NHE3 were grown in supplemented Dulbecco's-modified Eagle's medium as described by Levine et al., J. Biol. Chem. 268, 1993, 25527-25535. […] For cells not acid-preloaded, the actual internal pH value was monitored as a function of time following addition of squalamine, with the results depicted in FIG. 1B.
PS120 fibroblasts transfected with rabbit NHE3 were grown and acid preloaded by exposure to 40 mM NH4 Cl as described above in conjunction with FIGS. 1A and 1B. Internal cellular pH changes expressed as the rate of pH recovery as a function of restored extracellular sodium ion concentration following exposure to 10 μg/ml of the compound were assayed with the fluorescent dye BCECF-AM as described above.

## CC(C)CCC[C@@H](C)[C@H]1CC[C@H]2[C@@H]3CC[C@H]4C[C@@H](NCCCNCCCCNCCCN)CC[C@]4(C)[C@H]3CC[C@]12C [Compound 353]
S. aureus
  MIC: 16 µg/mL (≈ 27.9 µM)
E. coli
  MIC: 128 µg/mL (≈ 223 µM)
P. aerug
  MIC: 64 µg/mL (≈ 112 µM)
C. albicans
  MIC: 32 µg/mL (≈ 55.8 µM)
Human melanoma
  mode of cell death: apoptotic cell death has been induced
Lewis lung carcinoma [1]
  IC50: 1.9 µg/mL (≈ 3.32 µM)
Human melanoma WM 1167
  IC50: 3 µg/mL (≈ 5.24 µM)
[2]
  vitelline capillary regression, potency in words: no effect on the chick embryo capillary bed
[3]; 0.1 μg/ml
  effect on endothelial cord formation: +
[3]; 1.0 μg/ml
  effect on endothelial cord formation: +
[3]; 10.0 μg/ml
  effect on endothelial cord formation: +
[3]; Homo sapiens, Endothelial cell, Table II, read-out: Minimum Effective Concentration, Cord Formation
  minimal effective concentration: 10 µg/mL
[4]; in vivo
  similarity of pharmacologic activity in tadpole assay: effects like those produced by compound 1436

## CC(C)[C@@H](CC[C@@H](C)[C@H]1CC[C@H]2[C@@H]3[C@H](O)C[C@H]4C[C@@H](NCCCNCCCCNCCCN)CC[C@]4(C)[C@H]3CC[C@]12C)OS(=O)(=O)O [Compound 1436]
[5]
  duration of effect followed without significant change: 30 min
  heart rate: no significant increase in heart rate
[6]
  cancer cells inhibited in vitro: INHIBITED
Lewis lung carcinoma [7]
  cancer cells inhibited in vitro: INHIBITED
Murine B16 melanoma
  cancer cells inhibited in vitro: INHIBITED
[8]
  non-transformed cells inhibited in vitro: INHIBITED
Human melanoma WM 1617
  cancer cells inhibited in vitro: INHIBITED
[9]
  cancer cells inhibited in vitro: INHIBITED
[10]
  non-transformed cells inhibited in vitro: INHIBITED
Murine L1210 leukemia
  cancer cells inhibited in vitro: INHIBITED
[11]
  non-transformed cells inhibited in vitro: INHIBITED
[12]
  non-transformed cells inhibited in vitro: INHIBITED
[13]
  cancer cells inhibited in vitro: INHIBITED
[14]; 1 mg/kg QTD i.p.
  reduction in growth: about 10%
[14]; 10 mg/kg QTD i.p., after 6 doses, about 1 month
  suppression of growth of mice: growth was almost completely inhibited
[14]; mouse, in vivo
  apparent health of treated animals: all were active, normally proportioned, not-cachectic, and in excellent apparent clinical health
[15]
  atrial pacemaker and conduction: remained vigorous
Human melanoma
  mode of cell death: same highly selective mechanism of killing
[16]
  hyperglycemia: caused hyperglycemia in mice
[17]
  Tadpole M (merarocytes): +
HIV clinical isolate
  P-24 Elisa: 9
[18]; 0.5 μM
  viability at 168 h, 0.5 µM: 91%
[18]; 10 μM
  viability at 168 h, 10 µM: 95%
[18]; 10 μg/ml, read-out: lymphocyte viability
  viability at 168 h: 95%
[18]; 20 μM
  viability at 168 h, 20 µM: 90.1%
[2]
  vitelline capillary regression, potency in words: about the same potency as squalamine
[19]
  survival of mice bearing L1210 leukemia: significant prolongation of life
B16 melanoma
  impact on tumor volume: no significant impact on tumor volume
[4]; 10 μg/ml
  time to death of tadpole: about 2 hours
[4]; 10 μg/ml, about 1 hour
  tadpole response: Gradual reduction in overall activity. Heart beat remained strong, suggesting nervous system depression. Melanocytes over head and tail began to swell, first exhibiting visibly distinct nuclei, followed by rupture into fragments
Human lymphocytes
  inhibition at 10 µg/mL: > 75%
[20]
  growth of human coronary artery smooth muscle: suppress in vitro the growth
Rabbit NHE3
  inhibition of rabbit NHE3 (rate of pH recovery): inhibit rabbit NHE3
